Results on 14 molecules are retold here after US20240051968A1, “METHODS FOR TREATING SPINOCEREBELLAR ATAXIA TYPE 3” (PTC Therapeutics, Inc., priority 2021, published 2024).

The test system of test [1] is Total ATXN3 (tATXN3) protein. Kind of test: Endogenous Total ATXN3 (tATXN3) Protein Assay (MSD immunoassay of cell lysates). The following applies: cells incubated with compound 48 h; 7-point concentration curve; MSD detection in cell lysate. It is filed as cell-based. The protocol:
Endogenous Total ATXN3 (tATXN3) Protein Assay
Meso Scale Discovery (MSD) 96-well or 384-well plates were coated overnight at 4° C. with Ataxin 3 mouse monoclonal antibody (Invitrogen, MA3-082) at a concentration of 0.5 μg/mL in PBS (30 μL per well). Plates were then washed three times with 300 μL wash buffer (0.05% TWEEN®-20, polyethylene glycol sorbitan monolaurate, in PBS) and blocked (Meso Scale Diagnostics, R93BA-1; 5% BSA in PBS) for 2 h at room temperature with rotational shaking and then washed three times with wash buffer.
Test compounds were serially diluted 3.16-fold in 100% DMSO to generate a 7-point concentration curve. Aliquots of 0.5 μL of diluted compounds were transferred to a 96-well flat bottom plate by a liquid handler. An aliquot of 0.5 μL DMSO was also transferred to separate wells and used as controls. Duplicate samples were set up for each compound concentration and for the DMSO control.
Cells were thawed and incubated in cell culture media (DMEM, 10% FBS, and 1% antibiotic cocktail) for 72 h. Cells were trypsinized, counted, and re-suspended to a concentration of 100,000 cells/mL in cell culture media. A 100 μL aliquot of the cell suspensions were plated at 10,000 cells per well in the compound containing 96 well microtiter plate and incubated for in a cell culture incubator (37° C., 5% CO2, 100% relative humidity). After 48 h, the medium was removed and 50-100 μL of lysis buffer (Meso Scale Diagnostics, R60TX-2) containing 1× halt protease inhibitor cocktail of (Thermo Scientific, Halt™ Protease Inhibitor Cocktail, 78430) per well was added to cells to provide a “cell lysate”. The plate was placed on a shaker at 4° C. for 30 minutes, then stored at −80° C.
Cell lysate samples (25 μL) were transferred to the antibody-coated MSD plate and incubated overnight at 4° C. After removal of the lysates, the plate was washed three times with wash buffer, and 25 μL of Ataxin 3 recombinant rabbit monoclonal antibody (Invitrogen, #702788) secondary antibody (diluted to 0.25 μg/mL in 0.05% TWEEN®-20 in blocking buffer) was added to each well and incubated with shaking for 1-2 h at room temperature. Following incubation with the secondary antibody, the wells were rinsed with wash buffer and then […] Anti Rabbit Antibody Goat SULFO-TAG Labeled (Meso Scale Diagnostics, R32AB-1) detecting antibody (diluted to 0.25 μg/mL in 0.05% TWEEN®-20 in blocking buffer) was added to each well and incubated with shaking for 1 h at room temperature. After rinsing three times with wash buffer, 150 μL of Read Buffer T with surfactant (tris-based buffer containing tripropylamine, Meso Scale Diagnostics, R92TC-1) were added to each empty well, and the plate was imaged on a SI 6000 imager (MSD) according to manufacturers' instructions provided for 96- or 384-well plates.

In the next test the test system is ATXN3 pre-mRNA. Kind of test: RT-qPCR Assay to Quantify Exon 4 Skipping in ATXN3 pre-mRNA in Cells. It is filed as cell-based. The conditions noted are these: cells incubated with compound 24 h, 7-point concentration curve, GAPDH control. The protocol:
RT-qPCR Assay to Quantify Exon 4 Skipping in ATXN3 pre-mRNA in Cells Test compounds were serially diluted 3.16-fold in 100% DMSO to generate a 7-point concentration curve. Aliquots of 0.5 μL of diluted compounds were transferred to a 96-well flat bottom plate by a liquid handler. An aliquot of 0.5 μL DMSO was also transferred to separate wells and used as controls. Duplicate samples were set up for each compound concentration and for the DMSO control.
Cells were thawed and incubated in cell culture media (DMEM, 10% FBS, and 1% antibiotic cocktail) for 72 h. Cells were trypsinized, counted, and re-suspended to a concentration of 100,000 cells/mL in cell culture media. A 100 μL aliquot of the cell suspensions were plated at 10,000 cells per well in the compound containing 96 well microtiter plate and incubated for in a cell culture incubator (37° C., 5% CO2, 100% relative humidity).
After 24 h, media was aspirated from the cells and 50 μL of the RCL2 lysis buffer (10 mM Tris-HCL pH 7.4, 150 mM NaCl, 0.33% IGEPAL® CA-630) was added to each well and incubated at room temperature for 1 min. Chilled nuclease free water (50 μL per well) was added and the plates were immediately transferred on ice. After 1 min on ice, plates were frozen at −80° C. overnight.
Preparation of RT-qPCR Reaction Mixture:
An aliquot of 2 μL/well of the cell lysates was transferred using the liquid handler to the Armadillo 384-Well PCR plate containing 8 μL/well of the RT-qPCR reaction mixture that was prepared as detailed above. The plates were then sealed with MicroAmp™ Optical Adhesive Film followed by spinning down for 1 min and placed in the CFX384 thermocycler (BioRad).
The RT-qPCR was carried out at the following temperatures for the indicated time: • Step 1: 48° C. (30 min) • Step 2: 95° C. (10 min) • Step 3: 95° C. (15 sec) • Step 4: 60° C. (1 min); then, repeated Steps 3 and 4 for a total of 40 cycles.
The percent exon 4 skipping was calculated for each dose of compound treatment using Equations 1 and 2.
Data were fit to a dose response curve and the IC50 was interpolated using XLfit® statistical and curve fitting package.
An IC50 value between >2.0 μM and ≤3.0 μM is indicated by one star (*). […] IC50 value between >0.5 μM and ≤1.0 μM is indicated by four stars (****). An IC50 value ≤0.5 μM is indicated by five stars (*****).

`Clc1cc(NCc2ccco2)c2scc(Cl)c2n1` [Cpd 6, 3,5-dichloro-N-[(furan-2-yl)methyl]thieno[3,2-b]pyridin-7-amine]: in test [1], the “IC50 (average), total ATXN3 protein” value is “inactive”. For the same molecule, the “IC50, exon 4 skipping in ATXN3 pre-mRNA” value in the test on ATXN3 pre-mRNA was “inactive”.

Consider `Clc1cc(NCc2ccco2)c2scc(Br)c2n1` [Cpd 7, 3-bromo-5-chloro-N-[(furan-2-yl)methyl]thieno[3,2-b]pyridin-7-amine], for which the “IC50 (average), total ATXN3 protein” value in test [1] was “inactive”. Also, the IC50 in the test on ATXN3 pre-mRNA lay in the range of 1000 to 1500 nM.

Regarding `C[C@H](N)Cc1cc2nc(Cl)cc(NCc3ccco3)c2s1` [Cpd 16, 2-[(2S)-2-aminopropyl]-5-chloro-N-[(furan-2-yl)methyl]thieno[3,2-b]pyridin-7-amine], the IC50 (in test [1]; in the test on ATXN3 pre-mRNA) was not above 500 nM in each case.

`N[C@@H](CO)Cc1cc2nc(Cl)cc(NCc3ccco3)c2s1` [Cpd 17, (2R)-2-amino-3-(5-chloro-7-{[(furan-2-yl)methyl]amino}thieno[3,2-b]pyridin-2-yl)propan-1-ol]: the IC50 (in test [1]; with ATXN3 pre-mRNA) was not above 500 nM each time.

As for `Cc1c(C[C@H](C)N)sc2c(NCc3ccco3)cc(Cl)nc12` [Cpd 18, 2-[(2S)-2-aminopropyl]-5-chloro-N-[(furan-2-yl)methyl]-3-methylthieno[3,2-b]pyridin-7-amine], the IC50 (in test [1]; with ATXN3 pre-mRNA) was not above 500 nM in each case.

As to `Cc1c(C[C@H](C)N)sc2c(NCc3ccccc3F)cc(Cl)nc12` [Cpd 29, 2-[(2S)-2-aminopropyl]-5-chloro-N-[(2-fluorophenyl)methyl]-3-methylthieno[3,2-b]pyridin-7-amine], the IC50 (in test [1]; with ATXN3 pre-mRNA) was not above 500 nM throughout.

On to `Cc1c(C[C@H](C)N)sc2c(NCc3ccco3)ccnc12` [Cpd 34, 2-[(2S)-2-aminopropyl]-N-[(furan-2-yl)methyl]-3-methylthieno[3,2-b]pyridin-7-amine], for which the IC50 (in test [1]; in the test with ATXN3 pre-mRNA) was not above 500 nM each time.

For the molecule `Cc1c(C[C@H](C)N)sc2c(NCc3ccncc3F)cc(Cl)nc12` [Cpd 35, 2-[(2S)-2-aminopropyl]-5-chloro-N-[(3-fluoropyridin-4-yl)methyl]-3-methylthieno[3,2-b]pyridin-7-amine], the half-inhibitory concentration (IC50) (in test [1]; in the test on ATXN3 pre-mRNA) was not above 500 nM each time.

On to `C[C@H](N)Cc1sc2c(NCc3ccco3)cc(Cl)nc2c1Cl` [Cpd 36, 2-[(2S)-2-aminopropyl]-3,5-dichloro-N-[(furan-2-yl)methyl]thieno[3,2-b]pyridin-7-amine], for which the concentration for half-maximal inhibition (IC50) (in test [1]; in the test on ATXN3 pre-mRNA) was not above 500 nM throughout.

Regarding `N[C@@H](CO)Cc1sc2c(NCc3ccco3)cc(Cl)nc2c1Cl` [Cpd 39, (2R)-2-amino-3-(3,5-dichloro-7-{[(furan-2-yl)methyl]amino}thieno[3,2-b]pyridin-2-yl)propan-1-ol], the IC50 (in test [1]; in the test with ATXN3 pre-mRNA) was not above 500 nM throughout.

As to `COC[C@H](N)Cc1sc2c(NCc3ccco3)cc(Cl)nc2c1Cl` [Cpd 40, 2-[(2R)-2-amino-3-methoxypropyl]-3,5-dichloro-N-[(furan-2-yl)methyl]thieno[3,2-b]pyridin-7-amine], the IC50 (in test [1]; in the test with ATXN3 pre-mRNA) was not above 500 nM each time.

With `N[C@@H](CO)Cc1sc2c(NCc3ccco3)cc(Cl)nc2c1Br` [Cpd 41, (2R)-2-amino-3-(3-bromo-5-chloro-7-{[(furan-2-yl)methyl]amino}thieno[3,2-b]pyridin-2-yl)propan-1-ol], the IC50 (in test [1]; with ATXN3 pre-mRNA) was not above 500 nM in each case.

As to `CN[C@@H](C)Cc1sc2c(NCc3ccco3)cc(Cl)nc2c1C` [Cpd 42, 5-chloro-N-[(furan-2-yl)methyl]-3-methyl-2-[(2S)-2-(methylamino)propyl]thieno[3,2-b]pyridin-7-amine], the half-maximal inhibitory concentration (IC50) in test [1] was not above 500 nM; in the test on ATXN3 pre-mRNA, 500 to 1000 nM.

For the molecule `COC[C@H](N)Cc1sc2c(NCc3ccco3)cc(Cl)nc2c1Br` [Cpd 44, 2-[(2R)-2-amino-3-methoxypropyl]-3-bromo-5-chloro-N-[(furan-2-yl)methyl]thieno[3,2-b]pyridin-7-amine], the IC50 (in test [1]; in the test on ATXN3 pre-mRNA) was not above 500 nM each time.
